Laboratory results reported in US20220267356A1, “ARGINASE INHIBITORS AND METHODS OF USE THEREOF” (AstraZeneca AB, priority 2019, published 2022).

Experiments:
[1] = Bioavailability / pharmacokinetic study in male rats (IV and PO); assay type: in vivo; details: rat, pro-drug in plasma when dosed as pro-drug; for clearance / Vd: IV 2 mg/kg; for Vd: read-out: Vdss
Method: Example 14 is a prodrug form of Example 1. Examples 19 to 22 and 24 to 26 are prodrugs of example 18. […] Example 19 was formulated in 0.9% w/v saline pH 4 (adjusted with 1 M HCl) for IV dosing. The formulation was dosed at 2 mg/kg by femoral catheter to two male rats each (170-250 g). Jugular vein catheter serial blood samples were taken at 0.033, 0.083, 0.167, 0.5, 1, 2, 4, 8, and 24 hrs post-dose. For PO dosing, Example 19 was formulated in deionized water pH 4 (adjusted with 1 M HCl) and dosed at 5 mg/kg by oral gavage to two male rats each (170-250 g). Serial blood samples were taken by jugular vein catheter at 0.25, 0.5, 1, 1.5, 2, 3, 4, 8, and 24 hrs post dose. Plasma samples were generated from blood using low speed centrifugation. A single set of calibration standards containing Example 18 and Example 19 were prepared by spiking blank plasma. The samples and standards were extracted by precipitation with two volumes of acetonitrile followed by centrifugation. The results obtained were used to determine the Cl (mL/min/kg), Vdss (L/kg), Cmax (μM), AUC (μM h), tmax (h), and % F for both Example 18 and Example 19. Absolute bioavailability was determined by comparing the PO dose normalized AUC of Example 18 when dosed as Example 19, versus the dose normalized IV AUC of Example 18 when dosed as Example 18. Where appropriate, measured, not nominal, doses were used in the calculation. In an analogous fashion, the same procedure was repeated for Examples 14, 20 to 22, and 24 to 26.

Human Arginase 2 = biological target: T1, Human Arginase 2 (Homo sapiens, UniProt P78540); assay: Human Arginase 2 enzyme inhibition (thioarginine/DTNB absorbance at 412 nm); assay type: biochemical; details: recombinant enzyme 5 nM, 60 min, room temperature
T1 construct: made in house; host or cells: E. coli
T1 sequence (P78540 23-354): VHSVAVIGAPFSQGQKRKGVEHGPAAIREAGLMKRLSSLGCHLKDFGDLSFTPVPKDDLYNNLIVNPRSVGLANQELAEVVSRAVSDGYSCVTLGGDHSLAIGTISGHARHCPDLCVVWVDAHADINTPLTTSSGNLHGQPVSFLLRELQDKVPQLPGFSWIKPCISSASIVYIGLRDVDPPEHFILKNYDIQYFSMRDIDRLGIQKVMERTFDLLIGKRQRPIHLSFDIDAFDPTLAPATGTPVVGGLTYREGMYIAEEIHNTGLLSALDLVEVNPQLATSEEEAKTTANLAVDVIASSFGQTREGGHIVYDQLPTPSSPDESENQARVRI
From the text: (§1) The inhibitory effects of Examples 1-26 on the activity of Human Arginase 1 and Arginase 2 activity were quantified by measuring the formation of the thiol group from thioarginine using recombinant Arginase 1 or Arginase 2 produced from E. coli. The thiol group was detected with Ellman's reagent, 5,5′-dithiobis(2-nitrobenzoic acid) (DTNB). DTNB reacts with the thiol to give the mixed disulfide and 2-nitro-5-thiobenzoic acid (TNB) which is quantified by the absorbance of the anion (TNB^2−) at 412 nm.
(§2) The assays were run in clear 384 well plates (Greiner cat no: 781101). Various concentrations of Examples 1-26 in 300 nL DMSO were dispensed to assay plates using an Echo acoustic dispenser immediately followed by plate sealing and centrifugation. Two pre-mixes were prepared from reagents thawed immediately before addition to assay plates. Pre-mix one comprised human Arginase 1 or human Arginase 2, at a final concentration of 5 nM and 0.5 mM DTNB in assay buffer, 45 mM HEPES pH7.5, brij 35, 0.045% (w/v) and 100 μM MnCl2. Pre-mix two comprised freshly thawed 0.5 mM thioarginine in assay buffer. Fifteen microlitres of pre-mix one was dispensed to assay plates containing Examples 1-9, centrifuged and incubated for 30 minutes at room temperature prior to adding fifteen microlitres of pre-mix two.
(§3) Assay plates were centrifuged prior to reading absorbance at 412 nm in a Pherastar multi-mode plate reader to collect data at time point 0 (T0). The plates were incubated at room temperature for 60 min prior to reading again to collect data at time point 1 (T1). Data is derived by subtracting the A412 signal measured at T0 (time point 0) from that measured at T1 (time point 1). The data was transformed to % effect using the equation:
(§4) Compound % effect=100*[(X−min)/(max−min)],
(§5) where X represents the normalized value for the compound based on the Min (vehicle) and Max (reference compound) inhibition control.
(§6) The concentration of Examples 1-26 that inhibited the activity by 50% (i.e.the IC50) was calculated by plotting the % effect versus test compound concentration and fitting the data using the Genedata Screener Smart fit algorithm.

Human Arginase 1 = biological target: T2, Human Arginase 1 (Homo sapiens, UniProt P05089); assay: Human Arginase 1 enzyme inhibition (thioarginine/DTNB absorbance at 412 nm); assay type: biochemical; details: recombinant enzyme 5 nM, 60 min, room temperature
T2 construct: made in house; host or cells: E. coli
T2 sequence (P05089 1-322): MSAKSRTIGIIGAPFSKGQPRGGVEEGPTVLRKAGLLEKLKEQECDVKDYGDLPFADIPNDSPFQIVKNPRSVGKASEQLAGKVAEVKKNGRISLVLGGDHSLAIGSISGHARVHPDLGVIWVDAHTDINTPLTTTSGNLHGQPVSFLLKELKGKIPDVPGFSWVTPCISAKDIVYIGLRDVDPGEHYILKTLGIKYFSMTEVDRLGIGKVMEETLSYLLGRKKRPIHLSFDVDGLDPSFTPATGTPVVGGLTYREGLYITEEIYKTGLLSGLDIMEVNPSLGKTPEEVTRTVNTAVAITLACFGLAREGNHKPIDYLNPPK
From the text: as §1, §2, §3, §4, §5, §6

SMILES | clearance [1] [mL/min/kg] | Vd [1] [L/kg] | Cmax ([1]; PO 5 mg/kg) [nM] | Tmax ([1]; PO 5 mg/kg) [min] | IC50 (Human Arginase 2) [nM] | IC50 (Human Arginase 1) [nM]
C[C@H](N)C(=O)N[C@H](C(=O)O)[C@H](CN)CCCB(O)O [Example 25, (2S,3S)-3-(aminomethyl)-2-[[(2S)-2-aminopropanoyl]amino]-6-borono-hexanoic acid] | 28.3 | 0.18 | 40 | 15 | 150 | 68
CC(C)[C@H](N)C(=O)N[C@H](C(=O)O)[C@H](CN)CCCB(O)O [Example 26, (2S,3S)-3-(aminomethyl)-2-[[(2S)-2-amino-3-methyl-butanoyl]amino]-6-borono-hexanoic acid] | 26.6 | 0.15 |  |  | 2030 | 2560
